# Measured values published in patent US7842703B2, “Substituted benzofused derivatives and their use as vanilloid receptor ligands” (Glenmark Pharmaceuticals S.A., priority 2005, dated 2010).
# Target: T1, Human TRPV1 expressing CHO cells (Homo sapiens, UniProt Q8NER1)
# T1 construct: expressed in transfected cells; host or cells: CHO cells under G-418 selection
# Experiment: Screening for TRPV1 antagonist using the 45Calcium uptake assay (inhibition of capsaicin induced cellular uptake of radioactive calcium)
# Assay type: cell-based
# Settings: for inhibition at 1 µM: CHO; for inhibition at 1 µM / % inhibition of ^45Ca uptake at 1 μM: test compound 1 μM, capsaicin 250 nM, relative to maximum ^45Ca uptake induced by capsaicin alone; for IC50: inhibition of capsaicin (250 nM) induced ^45Ca uptake
# Description: The inhibition of TRPV1 receptor activation was followed as inhibition of capsaicin induced cellular uptake of radioactive calcium which represents calcium influx exclusively through the plasma membrane associated TRPV1 receptor.
# Stock solution of capsaicin was made in ethanol and test compounds in 100% DMSO. Stock solutions were diluted to appropriate final concentrations in assay buffer keeping the final DMSO concentration between 0.1% and 0.55%.
# ^45Ca was used at a final concentration of 2.5 μCi/ml (^45Ca, ICN).
# Assay buffer was composed of F-12 DMEM medium supplemented with 1.8 mM CaCl2 (final conc.) and 0.1% Bovine serum albumin. (BSA from SIGMA)
# Wash buffer was tyrodes solution supplemented with 0.1% BSA and 1.8 mM calcium. Lysis buffer contained 50 mM Tris-HCl, pH7.5, 150 mM NaCl, 1% Triton X-100, 0.5% deoxycholate and 0.1% Sodium dodicyl sulphate (SDS, SIGMA)
# Assay was carried out with some modifications the of procedure as described by Toth et. al. (See Toth A et. al., Life Sciences 73 p 487-498, 2003). Human TRPV1 expressing CHO cells were grown in F-12 DMEM (Dulbecco's modified Eagle's medium—GIBCO) medium with 10% FBS (fetal bovine serum Hyclone), 1% penicillin-streptomycin solution, 400 μg/ml of G-418. Cells were seeded 48 h prior to the assay in 96 well plates so as to get ˜50,000 cells per well on the day of experiment. Plates were incubated at 37° C. in the presence of 5% CO2. Cells were then washed twice with 200 μl of assay buffer and re-suspended in 144 μl of the same. Assay was carried out at 30° C. in total volume of 200 μl. Test compounds were added to the cells fifteen minutes before addition of capsaicin, Final concentration of capsaicin in the assay was 250 nM. After 5 minutes of agonist treatment, drug was washed out and wells rinsed with 300 μl of ice cold wash buffer 3×. The cells were lysed in 50 μl lysis buffer for 20 min. 40 μl of cell lysate was mixed with 150 μl of Microscint PS, left overnight for equilibration. Radioactivity in samples was measured as counts per minute (cpm) using Packard Biosciences Top Count. The drug/vehicle/capsaicin treated ^45Ca uptake values were normalized over basal ^45Ca value. Data was expressed as % inhibition of ^45Ca uptake by test compound with respect to maximum ^45Ca uptake induced by capsaicin alone. IC50 value was calculated from dose response curve by nonlinear regression analysis using GraphPadPRISM software.
# T1 sequence (Q8NER1 whole entry): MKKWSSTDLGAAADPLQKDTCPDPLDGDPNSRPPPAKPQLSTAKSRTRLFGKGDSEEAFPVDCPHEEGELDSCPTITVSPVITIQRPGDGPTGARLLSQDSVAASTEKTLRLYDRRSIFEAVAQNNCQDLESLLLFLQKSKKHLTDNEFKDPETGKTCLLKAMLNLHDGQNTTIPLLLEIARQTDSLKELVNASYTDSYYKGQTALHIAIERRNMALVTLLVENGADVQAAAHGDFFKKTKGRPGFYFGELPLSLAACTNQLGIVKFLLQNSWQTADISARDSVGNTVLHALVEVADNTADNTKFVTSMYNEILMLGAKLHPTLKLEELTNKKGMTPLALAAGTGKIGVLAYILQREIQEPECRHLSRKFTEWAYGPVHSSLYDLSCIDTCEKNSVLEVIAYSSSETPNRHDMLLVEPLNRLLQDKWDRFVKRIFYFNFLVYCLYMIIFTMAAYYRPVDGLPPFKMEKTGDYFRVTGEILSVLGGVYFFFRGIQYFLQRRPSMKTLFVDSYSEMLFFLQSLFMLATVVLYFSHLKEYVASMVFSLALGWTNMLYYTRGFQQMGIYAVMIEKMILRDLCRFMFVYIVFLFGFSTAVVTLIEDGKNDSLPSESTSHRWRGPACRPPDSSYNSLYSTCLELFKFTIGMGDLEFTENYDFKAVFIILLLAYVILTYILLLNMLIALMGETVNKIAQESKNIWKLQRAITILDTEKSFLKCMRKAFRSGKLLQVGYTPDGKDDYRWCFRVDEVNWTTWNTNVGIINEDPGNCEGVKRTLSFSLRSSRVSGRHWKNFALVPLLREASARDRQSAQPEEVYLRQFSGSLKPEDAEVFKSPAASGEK
inhibition at 1 µM [%],IC50 [nM],SMILES,% inhibition of ^45Ca uptake at 1 μM [%]
< 50,–,"O=C(Nc1cccc2cnccc12)NC1CC2(CCC2)Oc2c(OC(F)F)cccc21 (racemic) [Example 62, (±) 1-(3,4-Dihydro-8-difluoromethoxy-spiro[2H-1-benzopyran-2,1′-cyclobutane]-4-yl)-3-(isoquinolin-5-yl)urea]",–
> 50,1260,"Cc1cc2c(NC(=O)NC3CC4(CCC4)Oc4ccc(Cl)cc43)cccc2cn1 (racemic) [Example 73, (±) 1-(6-Chloro-3,4-dihydro-spiro[2H-1-benzopyran-2,1′-cyclobutane]-4-yl)-3-(3-methylisoquinolin-5-yl)urea]",–
–,–,"O=C(Nc1cccc2c(=O)[nH]ccc12)NC1CC2(CCC2)Oc2ccccc21 (stereo not drawn) [Example 30, N′-(1-oxo-1,2-dihydroisoquinolin-5-yl)-N-3,3′,4,4′-tetrahydro-2′H-spiro[chromene-2,1′-cyclobutan]-4-ylurea (N′-(1-oxo-1,2-dihydroisoquinolin-5-yl)-N-3,4-dihydro-2H-spiro[chromene-2,1′-cyclobutan]-4-ylurea)]",<50
> 50,591,"O=C(Nc1ccc(Cl)c2cnccc12)NC1CC2(CCC2)Oc2ccc(F)cc21 (racemic) [Example 71, (±) 1-(6-Fluoro-3,4-dihydro-spiro[2H-1-benzopyran-2,1′-cyclobutane]-4-yl)-3-(8-chloroisoquinolin-5-yl)urea]",–
< 50,–,"O=C(NCc1ccco1)NC1CC2(CCC2)Oc2ccccc21 (racemic) [Example 25, (±) 1-(3,4-Dihydro-spiro[2H-1-benzopyran-2,1′-cyclobutan]-4-yl)-3-(2-furylmethyl)urea]",–
< 50,–,"Nc1ccc2c(c1)C(NC(=O)Nc1cccc3cnccc13)CC1(CCC1)O2 (racemic) [Example 79, (±) 1-(6-Amino-3,4-dihydro-spiro[2H-1-benzopyran-2,1′-cyclobutane]-4-yl)-3-(isoquinolin-5-yl)urea]",–
10.9,–,"O=C(NCc1ccc(C(F)(F)F)cc1)N[C@H]1CC2(CCC2)Oc2ccccc21 [Example 38, 1-((S)-3,4-Dihydrospiro[2H-1-benzopyran-2,1′-cyclobutan]-4-yl)-3-(4-trifluoromethylbenzyl)urea]",–
–,–,"O=C(Nc1csc2cnccc12)NC1CC2(CCC2)Oc2ccccc21 (racemic) [Example 20, (±) 1-(3,4-Dihydro-spiro[2H-1-benzopyran-2,1′-cyclobutane]-4-yl)-3-(thieno[2,3-c]pyridine-3-ylurea]",<50
> 50,797,"CC(C)(C)c1nnc(NC(=O)NC2CC3(CCC3)Oc3ccccc32)s1 (racemic) [Example 16, (±) 1-(3,4-Dihydro-spiro[2H-1-benzopyran-2,1′-cyclobutane]-4-yl)-3-(5-tert-butyl-1,3,4-thiadiazol-2-yl)urea]",–
> 50,11.9,"O=C(Nc1cccc2cnccc12)NC1CC2(CCC2)Oc2ccc(F)cc21 (racemic) [Example 42, (±) 1-(3,4-Dihydro-6-fluoro-spiro[2H-1-benzopyran-2,1′-cyclobutane]-4-yl)-3-(isoquinolin-5-yl)urea]",–
> 50,585,"COc1ccc2c(c1)C(NC(=O)Nc1cccc3cnccc13)CC1(CCC1)O2 (racemic) [Example 51, (±) 1-(3,4-Dihydro-6-methoxy-spiro[2H-1-benzopyran-2,1′-cyclobutane]-4-yl)-3-(isoquinolin-5-yl)urea]",–
< 50,–,"O=C(Nc1cccc2cnccc12)NC1CC2(CCC2)Oc2ccc(OC3CCCC3)cc21 (racemic) [Example 52, (±) 1-(6-Cyclopentyloxy-3,4-dihydro-spiro[2H-1-benzopyran-2,1′-cyclobutane]-4-yl)-3-(isoquinolin-5-yl)urea]",–
< 50,–,"O=C(Nc1nc2cc(Cl)ccc2o1)NC1CC2(CCC2)Oc2ccccc21 (racemic) [Example 23, (±) 1-(3,4-Dihydro-spiro[2H-1-benzopyran-2,1′-cyclobutane]-4-yl)-3-(5-chloro-1,3-benzoxazol-2-yl)urea]",–
